Results on three molecules are retold here after patent publication US20260206786A1, “PROCEDURE FOR PREPARING COMPOSITIONS WITH A HIGH CONTENT OF BIOACTIVE COMPOUNDS” (I.T.P. S.R.L. INNOVATION & TECHNOLOGY PROVIDER, priority 2022, published 2026).

Series [1] in a line: Concentration of bioactive compound in oil enriched by the process of the invention. The format is physicochemical. How it is done:
(§1) Spectrophotometric analyses were performed using an ONDA UV/VIS Spectrophotometer, Model UV-31 SCAN. The oil samples were suitably diluted in RPE ethanol supplied by Carlo Erba. Scans were performed in the wavelength range of 600 nm and 300 nm, with a step size of 1 nm, using optical glass cuvettes.
(§2) HPLC analyses were performed using an Agilent HPLC Chromatograph, 1100 Series, equipped with an Agilent Technologies 1200 Series DAD UV/VIS detector, using an Agilent Eclipse plus 95 Å C18 Column, (100 mm—4.6 mm, 3.5 μm). Acetonitrile, Methanol, Water and Formic Acid for HPLC supplied by Sigma-Aldrich were used for the mobile phase.
At the end of the process, 5 mL of enriched oil was recovered with a concentration expressed as mass of lycopene per mass of oil of 35 mg/100 g, a concentration measured at 25° C. after centrifuging the oil for 15 minutes at 10,000 RPM.

For series [2] the following is noted: traditional preparation techniques, literature, cited from earlier work.
Series [3] is described as follows: Comparison of process of the invention with maceration in oil, UV/VIS spectra. Type of series: physicochemical. How it is done: as §1
(§3) In order to compare the efficacy of the method of the invention with the traditional method of enrichment by maceration in oil, enrichment of vegetable oils was carried out using both methods. Subsequently, equal amounts of oil obtained using the two methods were solubilised in a suitable solvent, respecting the same dilution ratio, and the resulting solutions were subjected to chromatographic and spectrophotometric analysis.

Series [4] in a line: Comparison of process of the invention with maceration in oil, HPLC chromatograms. The format is physicochemical. Particulars: Argan oil; Example 1 versus maceration of pure lycopene powder in oil. As to the method:
as §2, §3

Where two headings read alike, the source gives them in different places.

With `COc1cc(CNC(=O)CCCC/C=C/C(C)C)ccc1O` [capsaicin], in series [1] (deodorised sunflower oil enriched per Example 3 (R134a, 35° C., 7.66 atm, 90 minutes), measured at 25° C. after centrifugation 15 minutes at 10,000 RPM), the “concentration expressed as mass of Capsaicin on mass of oil” value was found to be 61.2 mg/100 g. Also, the “maximum concentration in vegetable oil” value in series [2] (listed as capsicin) is given as ≤ 10 mg per 100 g of oil; in series [2], “no more than 10 mg per 100 g of oil”. Besides, in series [3] (sunflower oil, Example 3 versus maceration), the “capsaicin concentration (absorbance at 280 nm), innovative methodology versus traditional methodology” value is reported as “approximately 6 times”.

For the molecule `COc1cc(/C=C/C(=O)CC(=O)/C=C/c2ccc(O)c(OC)c2)ccc1O` [curcumin], the “concentration expressed as mass of Curcumin on mass of oil” value in series [1] (wheat germ oil enriched per Example 2 (R1234ze, 28° C., 4.5 atm, 355 minutes), measured at 25° C. after centrifugation 15 minutes at 10,000 RPM) came out at 1420 mg/100 g.

For the molecule `CC(C)=CCC/C(C)=C/C=C/C(C)=C/C=C/C(C)=C/C=C/C=C(C)/C=C/C=C(C)/C=C/C=C(\C)CCC=C(C)C` [lycopene], the “lycopene concentration (HPLC peak area), process of the invention versus conventional method” value in series [4] was “about 3.3 times”. Besides, the “concentration expressed as mass of lycopene per mass of oil” value in series [1] (refined argan oil enriched per Example 1 (R1234ze, 28° C., 4.5 atm, 120 minutes), measured at 25° C. after centrifuging 15 minutes at 10,000 RPM) is recorded as 35 mg/100 g. Further, in series [2], the “maximum concentration in vegetable oil” value is given as 7-8 mg per 100 g of oil. Also, in series [3] (Argan oil, Example 1 versus maceration of pure lycopene powder in oil), the “lycopene concentration (absorbance at 502 nm), process of the invention versus traditional methodology” value is given as “approximately 3.3 times”.
